The source of these data is patent US20250313596A1, “BACILLUS SUBTILIS STRAINS PRODUCING NEW MYCOSUBTILIN ISOFORMS” (Universite de Lille, priority 2022, published 2025).

What is called MIC is the smallest concentration in the dilution series that meets the test's criterion for growth inhibition.

≈ marks a conversion by molar mass, not a printed value. Read-outs that look alike come from different tables or passages of the source. Where a SMILES comes first, the peptide text is derived from it. [ ]: non-standard residue; d: D form.

For data set [1], the system named is Vero cells. In kind it is cell-based. As for the experimental part: The cytotoxicity test is performed using Vero cells and the CyQUANT™ XTT Cell Viability assay kit (supplied by Invitrogen™).
Samples are dissolved in 100% DMSO at a concentration of 20-50 g/L. The final concentration in DMEM medium is 40 μg/L. Cells were prepared in flasks containing DMEM cell culture medium with 10% FBS as follows:
A 175 ml flask containing 20-30 million cells with 25 ml medium and 2 ml trypsin was added. Then the medium was discarded as the cells were attached to the flask wall. Rinse twice with PBS, then trypsin was added to detach cells from the flask wall. The mixture was incubated for 5 min at 37° C. To inactivate trypsin, 6 ml […] was added to the medium (twice the volume of the original trypsin in the medium).
In a 50 ml flask, the medium was centrifuged for 5 min at 300 g. […]. The medium was discarded, and the cells were resuspended. 100 μL of cells were added to 100 μL of dye, then 12 μL was used for counting. The percentage of viability was compared with a control of cells without any treatment.
The test is performed in a 96-well plate. A range of concentrations (mg/l) 0.14; 0.28; 0.56; 1.16; 2.25; 4.5 is used to determine the toxicity limit of each isoform.

For data set [2], the system named is rats. As to conditions: 28-day treatment and 14 days recovery period; cited from earlier work.
Data set [3] deals with B. cinerea. In kind it is cell-based. As to conditions: for ECS0 (μg/ml) B. cinerea: concentration that reduces fungal strain growth by 50%; for EC95 (μg/ml) B. cinerea: concentration that reduces pathogen growth by 95%. As for the experimental part:
(§1) Three different fungal strains were tested for their antifungal activity: B. cinerea, Aspergillus sp. and Z. tritici. In addition to the two conventional isoforms, three new isoforms are being tested for their antifungal properties. A range of concentrations (μg a.i./ml or ppm) 0; 0.0037; 0.0146; 0.0586; 0.2344; 0.9375; 3.75 and 15 is used to determine the activity coefficient. Based on this concentration range, the EC50 (concentration that reduces fungal strain growth by 50%) and EC95 (concentration that reduces pathogen growth by 95%) were calculated and presented as disclosed in Table 5.
4.1 Antifungal Activity on B. cinerea

Data set [4] has as its system Z. tritici. The class given is cell-based. Particulars: for ECS0 (μg/ml) Z. tritici: concentration that reduces fungal strain growth by 50%; for EC95 (μg/ml) Z. tritici: concentration that reduces pathogen growth by 95%. As to the method: as §1
4.3 Antifungal Activity on Z. Tritici

For data set [5], the system named is Aspergillus sp. The class given is cell-based. As to the method: as §1
4.2 Antifungal Activity on Aspergillus sp.

For data set [6], the system named is B. cinerea. Particulars: Béchet et al., 2013; cited from earlier work.
Data set [7] concerns A. niger. As to conditions: Guez et al., 2022; cited from earlier work.

Regarding `CCCCCCCCCCCCCC1CC(=O)N[C@@H](CC(N)=O)C(=O)N[C@H](Cc2ccc(O)cc2)C(=O)N[C@H](CCC(N)=O)C(=O)N[C@@H](CCC(N)=O)C(=O)N2CCC[C@H]2C(=O)N[C@H](CO)C(=O)N[C@@H](CC(N)=O)C(=O)N1` (some centres unmarked) [Gln3-C16], in data set [1], the “EC50 (cell viability)” value is on record as “over 4.5 mg/L” and the “toxicity compared with the conventional isoform, in words” value is recorded as “significantly less toxic than the conventional A-C16 isoform”.

On to Iturin A, for which, in data set [2], the “toxic effects on organs, in words” value is “no toxic effects on the lungs, heart and kidneys”.

`CCCCCCCCCCCCCC1CC(=O)N[C@@H](CCC(N)=O)C(=O)N[C@H](Cc2ccc(O)cc2)C(=O)N[C@H](CC(N)=O)C(=O)N[C@@H](CCC(N)=O)C(=O)N2CCC[C@H]2C(=O)N[C@H](CO)C(=O)N[C@@H](CC(N)=O)C(=O)N1` (some centres unmarked) [Gln1-C16] displayed an EC50 value in data set [3] of 1.048 ppm. The same compound showed an EC50 value in data set [4] of 1.906 ppm. Besides, in data set [1], the “EC50 (cell viability)” value was 4.5 µg/mL (≈ 4.15 µM) and the “toxicity compared with the conventional isoform, in words” value is “significantly less toxic than the conventional A-C16 isoform”.

For `CCCCCCCCCCCCCC[C@@H]1CC(=O)N[C@@H](CC(N)=O)C(=O)N[C@H](Cc2ccc(O)cc2)C(=O)N[C@H](CCC(N)=O)C(=O)N[C@@H](CCC(N)=O)C(=O)N2CCC[C@H]2C(=O)N[C@H](CO)C(=O)N[C@@H](CC(N)=O)C(=O)N1` [Gln3-C17] (HELM PEPTIDE1{N.[dY].[dQ].Q.P.[dS].N.[CCCCCCCCCCCCCC[C@H](CC(=O)[*:2])N[*:1]]}$PEPTIDE1,PEPTIDE1,1:R1-8:R2$$$V2.0), in data set [3], the “ECS0 (μg/ml) B. cinerea” value worked out at 1.646 µg/mL and the “EC95 (μg/ml) B. cinerea” value is 3.437 µg/mL (≈ 3.13 µM). Moreover, the “ECS0 (μg/ml) Aspergillus sp.” value in data set [5] (concentration that reduces fungal strain growth by 50%) was found to be 6.335 µg/mL. For the same compound, the “EC95 (μg/ml) Aspergillus sp.” value in data set [5] (concentration that reduces pathogen growth by 95%) was 13.659 µg/mL (≈ 12.4 µM). In data set [4], the “ECS0 (μg/ml) Z. tritici” value was 4.314 µg/mL and the “EC95 (μg/ml) Z. tritici” value was found to be 16.078 µg/mL (≈ 14.6 µM). Besides, the “EC50 (cell viability)” value in data set [1] is “over 4.5 mg/L”.

For n-C16, the MIC in data set [6] and in data set [7] was 16 µM in each case.

Take “conventional C17 isoform of mycosubtilin, ring Asn-Tyr-Asn-Gln-Pro-Ser-Asn (peaks 5, 6, 7; FIG. 1) (cyclo(N[dY][dN]QP[dS]N); not fully specified (N-terminus)) [A-C17]”: in data set [3], the “ECS0 (μg/ml) B. cinerea” value worked out at 0.467 µg/mL and the “EC95 (μg/ml) B. cinerea” value came out at 0.677 µg/mL. In data set [5] (Aspergillus sp.), this compound registered an EC50 value of 1.191 ppm and an EC95 value of 1.905 ppm. Also, in data set [5] (EC50, A-C17 versus Gln1-C17), the “higher concentration of the former required to have the same activity as the latter” value is recorded as 14%. For the same compound, the “higher concentration of the former required to have the same activity as the latter” value in data set [5] (EC95, A-C17 versus Gln1-C17) worked out at 32%. Besides, in data set [4], the “ECS0 (μg/ml) Z. tritici” value came to 0.943 µg/mL and the “EC95 (μg/ml) Z. tritici” value was found to be 18.010 µg/mL. In addition, the “EC50 (cell viability)” value in data set [1] (Vero cells, XTT, range 0.14-4.5 mg/l, determined from FIG. 7) is “around 1.7 mg/L”.

On to `CCCCCCCCCCCCCC[C@@H]1CC(=O)N[C@@H](CCC(N)=O)C(=O)N[C@H](Cc2ccc(O)cc2)C(=O)N[C@H](CC(N)=O)C(=O)N[C@@H](CCC(N)=O)C(=O)N2CCC[C@H]2C(=O)N[C@H](CO)C(=O)N[C@@H](CC(N)=O)C(=O)N1` [Gln1-C17], for which the “antifungal efficacy in words” value in data set [3] (B. cinerea) was “effective against this fungal strain, but at higher concentrations”. In addition, in data set [3], the “ECS0 (μg/ml) B. cinerea” value was 0.920 µg/mL and the “EC95 (μg/ml) B. cinerea” value amounted to 1.117 µg/mL (≈ 1.02 µM). The compound also displayed an EC50 value in data set [5] of 1.019 ppm. Also, in data set [5] (Aspergillus sp.), the EC95 value is given as 1.290 ppm and the “antifungal efficacy in words” value is “effective against this fungal strain”. In addition, the “antifungal efficacy in words” value in data set [4] (Z. tritici) is given as “effective against this fungal strain, but at a higher concentration”. For the same compound, in data set [4], the “ECS0 (μg/ml) Z. tritici” value was 2.156 µg/mL and the “EC95 (μg/ml) Z. tritici” value turned out to be 17.040 µg/mL (≈ 15.5 µM). For the same compound, in data set [1], the “EC50 (cell viability)” value is listed as “around 3.4 mg/L”.
